Assays:
MCF-7 tumor cell line = assay: SRB cytotoxicity assay, MCF-7; format: cell-based, human; details: SRB method, mean ± s, n=3
Experimental: (§1) The in vitro cytotoxicities of compounds 1–11 were evaluated against the SF-268, MCF-7, NCI-H460, and HepG-2 tumor cell lines by the Sulforhodamine B (SRB) method.
(§2) Cytotoxicities of compounds (1–11) were assayed against four tumor cell lines SF-268, MCF-7, NCI-H460, and HepG-2. Assays were performed by the SRB method.

SF-268 tumor cell line = assay: SRB cytotoxicity assay, SF-268; format: cell-based, human; details: SRB method, mean ± s, n=3
Experimental: as §1, §2

HepG-2 tumor cell line = assay: SRB cytotoxicity assay, HepG-2; format: cell-based, human; details: SRB method, mean ± s, n=3
Experimental: as §1, §2

[1] = tested on: SF-268, MCF-7, NCI-H460, and HepG-2 tumor cell lines; assay: SRB cytotoxicity, four tumor cell lines taken together; format: cell-based, human; details: for cytotoxic / inhibitory activity against the four tumor cell lines (in words): SF-268, MCF-7, NCI-H460, HepG-2, SRB method; for IC50: Homo sapiens, range over SF-268, MCF-7, NCI-H460, HepG-2, read-out: IC50 values against the four tumor cell lines
Experimental: as §1, §2

NCI-H460 tumor cell line = assay: SRB cytotoxicity assay, NCI-H460; format: cell-based, human; details: SRB method, mean ± s, n=3
Experimental: as §1, §2

α-glucosidase = α-glucosidase inhibitory activity assay; format: biochemical; details: in vitro; mean ± s, n=3
Experimental: All compounds were evaluated in vitro for α-glucosidase inhibitory activities.
An assay of α-glucosidase inhibitory activity was performed as previously described.

Molecule	IC50 (MCF-7 tumor cell line; Homo sapiens, MCF7) [µM]	IC50 (SF-268 tumor cell line; Homo sapiens, SF-268) [µM]	IC50 (HepG-2 tumor cell line; Homo sapiens, HepG2) [µM]	cytotoxic / inhibitory activity against the four tumor cell lines (in words) [1]	IC50 (NCI-H460 tumor cell line; Homo sapiens, NCI-H460) [µM]	IC50 (α-glucosidase) [µM]	IC50 [1] [µM]	IC50 (MCF-7 tumor cell line) [µM]	IC50 (SF-268 tumor cell line) [µM]	IC50 (HepG-2 tumor cell line) [µM]	IC50 (NCI-H460 tumor cell line) [µM]
CSC1(CO)C(=O)n2c(cc3ccccc32)C(=O)N1C (stereo not shown) [Compound 1, dichotocejpin A]	29.5 ± 2.3	35.7 ± 2.1	28.9 ± 3	inactive or weak	> 100	138 ± 6.7					
C=C1C(=O)N2C3C(=CC=CC3OC(C)=O)CC2(O)C(=O)N1C (stereo not shown) [Compound 2, dichotocejpin B]	> 100	> 100	> 100	inactive or weak	> 100	> 500					
CN1C(=O)[C@]2(O)Cc3ccccc3N2C(=O)[C@H]1CO [Compound 3, dichotocejpin C]	> 100	> 100	> 100	inactive or weak	> 100	> 500					
CN1C(=O)[C@]23Cc4ccccc4N2C(=O)[C@@]1(CO)SS3 [Compound 4, 6-deoxy-5a,6-didehydrogliotoxin]	0.68 ± 0.02	1.35 ± 0.05	1.52 ± 0.03		1.27 ± 0.04	> 500	0.08 to 1.52				
CN1C(=O)[C@]23CC4=CC=C[C@H](O)[C@H]4N2C(=O)[C@@]1(CO)SS3 [Compound 5, gliotoxin]	0.08	0.24 ± 0.1	0.21 ± 0.01		0.24 ± 0.01	> 500	0.08 to 1.52				
CC(=O)O[C@H]1C=CC=C2C[C@]34SS[C@](CO)(C(=O)N3C21)N(C)C4=O (stereo partly shown) [Compound 6, acetylgliotoxin]	0.22 ± 0.04	0.25 ± 0.03	0.49 ± 0.07		0.32 ± 0.02	> 500	0.08 to 1.52				
CS[C@@]1(CO)NC(=O)[C@@](Cc2ccccc2)(SC)NC1=O [Compound 7, bis-N-norgliovictin]	> 100	> 100	> 100		> 100	> 500					
CSC1(Cc2ccccc2)NC(=O)C(CO)NC1=O (stereo not shown) [Compound 8, 3-benzyl-6-(hydroxymethyl)-3-(methylthio)piperazine-2,5-dione]	> 100	> 100	> 100		> 100	> 500					
CS[C@]1(CO)C(=O)N2[C@H]3C(=CC=C[C@@H]3OC(C)=O)C[C@@]2(SC)C(=O)N1C [Compound 10, 6-acetylbis(methylthio)gliotoxin]	3.1 ± 0.1	34 ± 3.6	7 ± 0.17	significant inhibitory activities	5.4 ± 0.6	> 500					
C=c1c(=O)n2c(cc3ccccc32)c(=O)n1C [Compound 11, 1,2,3,4-tetrahydro-2-methyl-3-methylene-1,4-dioxopyrazino[1,2-a]indole]	4.67 ± 1.4	3.3 ± 0.28	2.29 ± 0.3	significant inhibitory activities	12.3 ± 0.24	> 500					
N.N.[Cl][Pt][Cl] [cisplatin, reference compound]								3.09 ± 0.27	2.37 ± 0.35	1.39 ± 0.18	2.43 ± 0.15
bisdethiobis(methylthio)gliotoxin [Compound 9]						> 500		> 100	> 100	> 100	> 100

Reference: article PMC5039535, “Dichotocejpins A–C: New Diketopiperazines from a Deep-Sea-Derived Fungus Dichotomomyces cejpii FS110” (Marine Drugs, 2016)
